Source: patent US20230085307A1, “PYRIDAZINONE COMPOUND AND HERBICIDE” (NISSAN CHEMICAL CORPORATION, priority 2019, published 2023)

Test system: southern crabgrass
Test: Test Example 5: herbicidal effect by foliage application, plastic box (Table 20, symbol F)
Type: in vivo, southern crabgrass (Digitaria ciliaris)
Settings: foliage application, 320 g/ha, 3 weeks after application
Method in brief: (§1)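 Plants were sown into sterilized diluvial soil under about 1.5 cm cover and kept in a greenhouse at 25° C. to 30° C. Fourteen days on, foliage received an even spray of the diluted emulsion. Herbicidal or crop effect was judged three weeks afterwards.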

| SMILES | effect on southern crabgrass (F) |
| --- | --- |
| C#CCOc1c(C)nn(C)c(=O)c1-c1c(-c2ccc(F)cc2)sc2ccc(F)cc12 [2-006] | 0 (Herbicidal rate of 5% or less (almost no effect)) |

Test system: barnyard grass
Test: Test Example 3: herbicidal effect by foliage application, Wagner pot (Table 18, symbol H)
Type: in vivo, barnyard grass (Echinochloa crus-galli)
Settings: 320 g/ha
Method in brief: (§2)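 Plants were sown in alluvial soil held under 0.1–0.5 cm standing water and grown 14 days in a greenhouse at 25–30 °C. An emulsifiable formulation, water-diluted to the set dose, was then sprayed onto the foliage, and effects were scored three weeks later using previously defined criteria.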

| SMILES | herbicidal effect on H (barnyard grass), rating 0-5 |
| --- | --- |
| C#CCOc1c(C)nn(C)c(=O)c1-c1c(-c2ccc(F)cc2)sc2ccc(F)cc12 [2-006] | 2 (Herbicidal rate of 20% or more and less than 40%) |

Test system: persian speedwell
Test: Test Example 5: herbicidal effect by foliage application, plastic box (Table 20, symbol R)
Type: in vivo, Persian speedwell (Veronica persica)
Settings: foliage application, 320 g/ha, 3 weeks after application
Method in brief: as §1

| SMILES | effect on persian speedwell (R) |
| --- | --- |
| C#CCOc1c(C)nn(C)c(=O)c1-c1c(-c2ccc(F)cc2)sc2ccc(F)cc12 [2-006] | 2 (Herbicidal rate of 20% or more and less than 40%) |

Test system: rice flat sedge
Test: Test Example 3: herbicidal effect by foliage application, Wagner pot (Table 18, symbol E)
Type: in vivo, rice flat sedge (Cyperus iria)
Settings: 320 g/ha
Method in brief: as §2

| SMILES | herbicidal effect on E (rice flat sedge), rating 0-5 |
| --- | --- |
| C#CCOc1c(C)nn(C)c(=O)c1-c1c(-c2ccc(F)cc2)sc2ccc(F)cc12 [2-006] | 0 (Herbicidal rate of 5% or less (almost no effect)) |

Test system: windgrass
Test: Test Example 5: herbicidal effect by foliage application, plastic box (Table 20, symbol L)
Type: in vivo, windgrass (Apera spica-venti)
Settings: foliage application, 320 g/ha, 3 weeks after application
Source text: (§3) [Test Example 5] Herbicidal Effect Test by Foliage Application
(§4) Sterilized diluvial soil was placed in a plastic box having a length of 21 cm, a width of 13 cm, and a depth of 7 cm. The seeds of each of southern crabgrass, green foxtail, barnyard grass, wild oat, blackgrass, Italian ryegrass, windgrass, velvetleaf, redroot pigweed, lambsquarters, chickweed, false cleavers, persian speedwell, corn, soybean, rice, wheat, beet, and rapeseed were sowed in a spot-like manner and covered with the soil having a thickness of about 1.5 cm. Thereafter, the plants were grown in a greenhouse at 25° C. to 30° C. After 14-day growth of the plants, the emulsion agent of the compound of the present invention prepared according to Formulation Example 2 was diluted with water so as to achieve a predetermined herbicide amount, and the diluted emulsion agent was uniformly applied to a foliage part with a small-sized spray. Three weeks after the herbicide application, the effect of the herbicide on each plant was evaluated according to the criteria of Test Example 1.

| SMILES | effect on windgrass (L) |
| --- | --- |
| C#CCOc1c(C)nn(C)c(=O)c1-c1c(-c2ccc(F)cc2)sc2ccc(F)cc12 [2-006] | 0 (Herbicidal rate of 5% or less (almost no effect)) |

Test system: barnyard grass
Test: Test Example 5: herbicidal effect by foliage application, plastic box (Table 20, symbol H)
Type: in vivo, barnyard grass (Echinochloa crus-galli)
Settings: foliage application, 320 g/ha, 3 weeks after application
Method in brief: as §1

| SMILES | effect on barnyard grass (H) |
| --- | --- |
| C#CCOc1c(C)nn(C)c(=O)c1-c1c(-c2ccc(F)cc2)sc2ccc(F)cc12 [2-006] | 0 (Herbicidal rate of 5% or less (almost no effect)) |

Test system: green foxtail
Test: Test Example 5: herbicidal effect by foliage application, plastic box (Table 20, symbol G)
Type: in vivo, green foxtail (Setaria viridis)
Settings: foliage application, 320 g/ha, 3 weeks after application
Source text: as §3, §4

| SMILES | effect on green foxtail (G) |
| --- | --- |
| C#CCOc1c(C)nn(C)c(=O)c1-c1c(-c2ccc(F)cc2)sc2ccc(F)cc12 [2-006] | 0 (Herbicidal rate of 5% or less (almost no effect)) |

Test system: blackgrass
Test: Test Example 5: herbicidal effect by foliage application, plastic box (Table 20, symbol J)
Type: in vivo, blackgrass (Alopecurus myosuroides)
Settings: foliage application, 320 g/ha, 3 weeks after application
Method in brief: as §1

| SMILES | effect on blackgrass (J) |
| --- | --- |
| C#CCOc1c(C)nn(C)c(=O)c1-c1c(-c2ccc(F)cc2)sc2ccc(F)cc12 [2-006] | 0 (Herbicidal rate of 5% or less (almost no effect)) |

Test system: wild oat
Test: Test Example 5: herbicidal effect by foliage application, plastic box (Table 20, symbol I)
Type: in vivo, wild oat (Avena fatua)
Settings: foliage application, 320 g/ha, 3 weeks after application
Source text: as §3, §4

| SMILES | effect on wild oat (I) |
| --- | --- |
| C#CCOc1c(C)nn(C)c(=O)c1-c1c(-c2ccc(F)cc2)sc2ccc(F)cc12 [2-006] | 0 (Herbicidal rate of 5% or less (almost no effect)) |

Test system: velvetleaf
Test: Test Example 5: herbicidal effect by foliage application, plastic box (Table 20, symbol M)
Type: in vivo, velvetleaf (Abutilon theophrasti)
Settings: foliage application, 320 g/ha, 3 weeks after application
Method in brief: as §1

| SMILES | effect on velvetleaf (M) |
| --- | --- |
| C#CCOc1c(C)nn(C)c(=O)c1-c1c(-c2ccc(F)cc2)sc2ccc(F)cc12 [2-006] | 0 (Herbicidal rate of 5% or less (almost no effect)) |

Test system: Italian ryegrass
Test: Test Example 5: herbicidal effect by foliage application, plastic box (Table 20, symbol K)
Type: in vivo, Italian ryegrass (Lolium multiflorum)
Settings: foliage application, 320 g/ha, 3 weeks after application
Method in brief: as §1

| SMILES | effect on Italian ryegrass (K) |
| --- | --- |
| C#CCOc1c(C)nn(C)c(=O)c1-c1c(-c2ccc(F)cc2)sc2ccc(F)cc12 [2-006] | 0 (Herbicidal rate of 5% or less (almost no effect)) |

Test system: Chinese sprangletop
Test: Test Example 3: herbicidal effect by foliage application, Wagner pot (Table 18, symbol D)
Type: in vivo, chinese sprangletop (Leptochloa chinensis)
Settings: 320 g/ha
Procedure: [Test Example 3] Herbicidal Effect Test by Foliage Application After alluvial soil was placed into 1/10000 are of Wagner pot, water was poured and mixed to form a submerged condition having a water depth of 0.1 cm to 0.5 cm. Seeds of barnyard grass, Chinese sprangletop, rice flat sedge, and rice were sowed and the pot was placed in a greenhouse at 25° C. to 30° C. for growth of the plants. After 14-day growth of the plants, the emulsion agent of the compound of the present invention prepared according to Formulation Example 2 was diluted with water so as to achieve a predetermined herbicide amount, and the diluted emulsion agent was uniformly applied to a foliage part with a small-sized spray. Three weeks after the herbicide application, the effect of the herbicide on each plant was evaluated according to the criteria of Test Example 1.

| SMILES | herbicidal effect on D (Chinese sprangletop), rating 0-5 |
| --- | --- |
| C#CCOc1c(C)nn(C)c(=O)c1-c1c(-c2ccc(F)cc2)sc2ccc(F)cc12 [2-006] | 0 (Herbicidal rate of 5% or less (almost no effect)) |

Test system: lambsquarters
Test: Test Example 5: herbicidal effect by foliage application, plastic box (Table 20, symbol O)
Type: in vivo, lambsquarters (Chenopodium album)
Settings: foliage application, 320 g/ha, 3 weeks after application
Source text: as §3, §4

| SMILES | effect on lambsquarters (O) |
| --- | --- |
| C#CCOc1c(C)nn(C)c(=O)c1-c1c(-c2ccc(F)cc2)sc2ccc(F)cc12 [2-006] | 0 (Herbicidal rate of 5% or less (almost no effect)) |
